Data published in patent US20080019909A1, “Modulation of Programmed Necrosis” (priority 2003, published 2008).
Entries after “also recorded” stand apart in the source; their conditions may differ.

Key:
RIP = assay: Western blot of RIP cleavage in TNF or anti-Fas stimulated wild-type 4E3 cells; format: cell-based; conditions: six hours, C-terminal specific RIP antibody
Description: FIG. 4A is a Western blot showing the results of experiments in which wild-type 4E3 cells (WT) and J3.2 cells (Casp-8 -/-) cells Were treated with various combinations of rhTNFα, Apo-1 (anti-Fas), and zVAD-fmk for six hours before whole cell lysates were harvested.

caspase-8 -/- J3.2 cells = assay: TNF cytotoxic assay (cell loss by PI exclusion on FACS), caspase-8 -/- J3.2 cells; conditions: caspase-8 -/- J3.2 cells; rhTNF 15-16 hours; zVAD-fmk or 0.5 mM GA pretreatment
[1] = test system: TNFR-2-expressing wild-type (4E3) Jurkat cells
Description: Cells were harvested and analyzed by PI exclusion on FACS 16 hours post-stimulation and cell loss was calculated as described in Example 1 (infra).

FADD -/- I42 cells = assay: TNF cytotoxic assay (cell loss by PI exclusion on FACS), FADD -/- I42 cells; format: cell-based; conditions: FADD -/- I42 cells; TNF 16 hours; zVAD-fmk or GA
Description: Cells were stimulated with, TNF or anti-Fas antibody (CH11) for 12 hours and cell loss was analyzed on the GFP+ cells by PI exclusion on FACS.
FIG. 8F is a bar graph depicting the results of experiments in which FADD -/- I42 cells and caspase-8 -/- J3.2 cells (both are TNFR-2+) were stimulated with TNF in the presence or absence of zVAD-fmk for 16 hours.

[2] = test system: TNFR-2+ RIP -/- Jurkat cells (R1.1); assay: TNF cytotoxic assay (cell loss by PI exclusion on FACS), TNFR-2+ RIP -/- cells; format: cell-based
Excerpt: The results are representative of three experiments.

## z-Val-Ala-Asp-fluoromethyl ketone [zVAD-fmk]
RIP
  RIP cleavage: potently inhibited
caspase-8 -/- J3.2 cells
  TNF-induced programmed necrosis (cell loss): failed to provide any protection; also recorded: not blocked
[1]
  cell viability, compound alone: no effect
[1]; wild-type 4E3 cells, 10 ng/ml rhTNFα with zVAD-fmk plus GA, 16 hours
  TNF-induced death (cell loss), zVAD-fmk plus GA together: synergized to completely suppress
[1]; wild-type 4E3 cells, 10 ng/ml rhTNFα, 16 hours, or 0.5 mM GA
  TNF-induced death (cell loss), single agent: partial protective effect
FADD -/- I42 cells
  TNF-induced programmed necrosis (cell loss): failed to provide any protection; also recorded: not blocked
[2]; TNFR-2+ RIP -/- cells (R1.1), 10 ng/ml rhTNFα, 16 hours, 50 mM zVAD-fmk or 0.5 mM GA
  TNF-induced death (cell loss): completely inhibited
[2]; TNFR-2+ RIP -/- cells reconstituted with kinase inactive (K45A) RIP or RIPc
  TNF killing restored by K45A or RIPc, in the presence of zVAD-fmk: potently inhibited
